The target of experiment [1] is human glucagon receptor (hGCGR) (Homo sapiens, UniProt P47871). In words: cAMP production (HTRF) in CHO cells expressing hGCGR. It is filed as cell-based. The arrangement: expressed in transfected cells. The note with it: Table 7, peptides modified at position 20; cAMP in CHO hGCGR cells; geometric mean; read-out: hGluc-R EC50. Summed up: (§1)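 Cells were resuspended in assay buffer at batch-optimized density, typically 1×10^5 cells/mL for hGLP-1R and 2×10^5 cells/mL for hGCGR. After 30 min incubation at room temperature with compound, cAMP was measured by two-step HTRF. EC50 values came from 4-parameter logistic fits of % Delta F.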
Sequence of human glucagon receptor (hGCGR) (P47871 26-477): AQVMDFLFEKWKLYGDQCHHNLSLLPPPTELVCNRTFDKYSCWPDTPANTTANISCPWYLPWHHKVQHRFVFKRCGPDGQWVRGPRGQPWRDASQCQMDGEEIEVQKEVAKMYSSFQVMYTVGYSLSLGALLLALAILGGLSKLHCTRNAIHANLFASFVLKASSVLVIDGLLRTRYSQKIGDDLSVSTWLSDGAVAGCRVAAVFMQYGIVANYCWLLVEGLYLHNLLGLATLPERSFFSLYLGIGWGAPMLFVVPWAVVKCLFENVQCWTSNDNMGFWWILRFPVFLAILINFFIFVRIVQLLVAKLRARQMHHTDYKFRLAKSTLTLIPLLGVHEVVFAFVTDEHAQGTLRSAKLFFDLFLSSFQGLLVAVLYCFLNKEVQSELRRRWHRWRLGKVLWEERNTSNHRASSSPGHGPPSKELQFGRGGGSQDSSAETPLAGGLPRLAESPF

For experiment [2], the target named is human GLP-1 receptor (hGLP-1R) (Homo sapiens, UniProt P43220). Briefly: cAMP production (HTRF) in CHO cells expressing hGLP-1R. Type of experiment: cell-based. The arrangement: expressed in transfected cells. Conditions: for EC50: Table 7, peptides modified at position 20, cAMP in CHO hGLP-1R cells, geometric mean, read-out: hGLP-1R EC50; for % Relative Potency Ratio: Table 7, % GLP-1R activity relative to GLP-1 / % GlucR activity relative to glucagon. Summed up:
as §1

Starred links: 1 amine or outer side, 2 acyl side, 3 side chain; linkers in the order of their positions; H or OH if unused. Non-standard residues stand in square brackets, D forms with d. Residues, ends and D or L forms follow the SMILES beside them. Groups on a side chain read outwards from the residue. *: point of attachment. C20 diacid = O=C(O)CCCCCCCCCCCCCCCCCCC(=O)*; C18 diacid = O=C(O)CCCCCCCCCCCCCCCCC(=O)*; γGlu = O=C(O)[C@H](CCC(=O)[*:2])N[*:1]; αMeF = C[C@](N)(Cc1ccccc1)C(=O)O; AEEA = NCCOCCOCC(=O)O; Aib = CC(C)(N)C(=O)O

Sequence of human GLP-1 receptor (hGLP-1R) (P43220 24-463): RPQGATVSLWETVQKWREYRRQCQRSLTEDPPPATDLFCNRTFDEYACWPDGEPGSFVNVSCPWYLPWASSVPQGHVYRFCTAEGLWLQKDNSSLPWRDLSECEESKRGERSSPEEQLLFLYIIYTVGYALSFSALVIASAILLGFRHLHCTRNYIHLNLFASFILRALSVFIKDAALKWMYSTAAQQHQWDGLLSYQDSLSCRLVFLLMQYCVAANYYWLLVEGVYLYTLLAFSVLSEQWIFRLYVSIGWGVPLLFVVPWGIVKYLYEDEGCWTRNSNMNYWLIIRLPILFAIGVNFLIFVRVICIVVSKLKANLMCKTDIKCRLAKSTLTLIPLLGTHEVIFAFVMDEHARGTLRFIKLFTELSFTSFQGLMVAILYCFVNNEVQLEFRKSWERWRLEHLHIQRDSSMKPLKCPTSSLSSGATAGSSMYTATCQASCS

Take `CC[C@H](C)[C@H](NC(=O)[C@H](Cc1c[nH]c2ccccc12)NC(=O)[C@H](CCC(N)=O)NC(=O)[C@@H](NC(=O)[C@](C)(Cc1ccccc1)NC(=O)[C@H](CC(=O)O)NC(=O)[C@H](CCCCNC(=O)COCCOCCNC(=O)COCCOCCNC(=O)CC[C@H](NC(=O)CCCCCCCCCCCCCCCCC(=O)O)C(=O)O)NC(=O)[C@H](C)NC(=O)[C@H](C)NC(=O)[C@H](CCCNC(=N)N)NC(=O)[C@H](CO)NC(=O)[C@H](CC(=O)O)NC(=O)[C@H](CC(C)C)NC(=O)[C@](C)(Cc1ccccc1)NC(=O)[C@H](CCCCN)NC(=O)[C@H](CO)NC(=O)[C@@H](NC(=O)[C@H](CC(=O)O)NC(=O)[C@H](CO)NC(=O)[C@@H](NC(=O)[C@](C)(Cc1ccccc1)NC(=O)[C@H](CO)NC(=O)CNC(=O)[C@H](Cc1c[nH]cn1)NC(=O)C(C)(C)NC(=O)[C@@H](N)Cc1c[nH]cn1)[C@@H](C)O)C(C)C)C(C)C)C(=O)N[C@@H](C)C(=O)N[C@@H](CC(N)=O)C(=O)N[C@H](C(N)=O)[C@@H](C)O` [Peptide 288] (H-H[Aib]HGS[αMeF]TSDVSK[αMeF]LDSRAAK([AEEA-AEEA-γGlu-C18 diacid])D[αMeF]VQWIANT-NH2): in experiment [1], the EC50 came to 0.0269 nM. In experiment [2], the EC50 amounted to 0.0427 nM and the “% Relative Potency Ratio” value came out at 1.2.

For `CC[C@H](C)[C@H](NC(=O)[C@H](Cc1c[nH]c2ccccc12)NC(=O)[C@H](CCC(N)=O)NC(=O)[C@@H](NC(=O)[C@](C)(Cc1ccccc1)NC(=O)[C@H](CC(=O)O)NC(=O)[C@H](CCCCNC(=O)COCCOCCNC(=O)COCCOCCNC(=O)CC[C@H](NC(=O)CC[C@H](NC(=O)CCCCCCCCCCCCCCCCCCC(=O)O)C(=O)O)C(=O)O)NC(=O)[C@H](C)NC(=O)[C@H](C)NC(=O)[C@H](CCCNC(=N)N)NC(=O)[C@H](CO)NC(=O)[C@H](CC(=O)O)NC(=O)[C@H](CC(C)C)NC(=O)[C@H](Cc1ccc(O)cc1)NC(=O)[C@H](CCCCN)NC(=O)[C@H](CO)NC(=O)[C@@H](NC(=O)[C@H](CC(=O)O)NC(=O)[C@H](CO)NC(=O)[C@@H](NC(=O)[C@H](Cc1ccccc1)NC(=O)[C@H](CO)NC(=O)CNC(=O)[C@H](Cc1c[nH]cn1)NC(=O)C(C)(C)NC(=O)[C@@H](N)Cc1c[nH]cn1)[C@@H](C)O)C(C)C)C(C)C)C(=O)N[C@@H](C)C(=O)N[C@@H](CC(N)=O)C(=O)N[C@H](C(N)=O)[C@@H](C)O` [Peptide 291] (H-H[Aib]HGSFTSDVSKYLDSRAAK([AEEA-AEEA-γGlu-γGlu-C20 diacid])D[αMeF]VQWIANT-NH2), in experiment [1], the concentration giving a half-maximal response (EC50) came to 0.847 nM. Further, in experiment [2], the EC50 came to 1.51 nM and the “% Relative Potency Ratio” value was found to be 1.1.

As to `CC[C@H](C)[C@H](NC(=O)[C@H](Cc1c[nH]c2ccccc12)NC(=O)[C@H](CCC(N)=O)NC(=O)[C@@H](NC(=O)[C@H](Cc1ccccc1)NC(=O)[C@H](CC(=O)O)NC(=O)[C@H](CCCCNC(=O)COCCOCCNC(=O)COCCOCCNC(=O)CC[C@H](NC(=O)CCCCCCCCCCCCCCCCC(=O)O)C(=O)O)NC(=O)[C@H](C)NC(=O)[C@H](C)NC(=O)[C@H](CCCNC(=N)N)NC(=O)[C@H](CO)NC(=O)[C@H](CC(=O)O)NC(=O)[C@H](CC(C)C)NC(=O)[C@H](Cc1ccc(O)cc1)NC(=O)[C@H](CCCCN)NC(=O)[C@H](CO)NC(=O)[C@@H](NC(=O)[C@H](CC(=O)O)NC(=O)[C@H](CO)NC(=O)[C@@H](NC(=O)[C@](C)(Cc1ccccc1)NC(=O)[C@H](CO)NC(=O)CNC(=O)[C@H](Cc1c[nH]cn1)NC(=O)C(C)(C)NC(=O)[C@@H](N)Cc1c[nH]cn1)[C@@H](C)O)C(C)C)C(C)C)C(=O)N[C@@H](C)C(=O)N[C@@H](CC(N)=O)C(=O)N[C@H](C(N)=O)[C@@H](C)O` [Peptide 292] (H-H[Aib]HGS[αMeF]TSDVSKYLDSRAAK([AEEA-AEEA-γGlu-C18 diacid])DFVQWIANT-NH2), the EC50 in experiment [1] was determined as 0.0204 nM. For the same compound, in experiment [2], the half-maximal effective concentration (EC50) amounted to 0.0287 nM and the “% Relative Potency Ratio” value came to 1.4.

Regarding `CC[C@H](C)[C@H](NC(=O)[C@H](Cc1c[nH]c2ccccc12)NC(=O)[C@H](CCC(N)=O)NC(=O)[C@@H](NC(=O)[C@H](Cc1ccccc1)NC(=O)[C@H](CC(=O)O)NC(=O)[C@H](CCCCNC(=O)COCCOCCNC(=O)COCCOCCNC(=O)CC[C@H](NC(=O)CCCCCCCCCCCCCCCCC(=O)O)C(=O)O)NC(=O)[C@H](C)NC(=O)[C@H](C)NC(=O)[C@H](CCCNC(=N)N)NC(=O)[C@H](CO)NC(=O)[C@H](CC(=O)O)NC(=O)[C@H](CC(C)C)NC(=O)[C@](C)(Cc1ccccc1)NC(=O)[C@H](CCCCN)NC(=O)[C@H](CO)NC(=O)[C@@H](NC(=O)[C@H](CC(=O)O)NC(=O)[C@H](CO)NC(=O)[C@@H](NC(=O)[C@H](Cc1ccccc1)NC(=O)[C@H](CO)NC(=O)CNC(=O)[C@H](Cc1c[nH]cn1)NC(=O)C(C)(C)NC(=O)[C@@H](N)Cc1c[nH]cn1)[C@@H](C)O)C(C)C)C(C)C)C(=O)N[C@@H](C)C(=O)N[C@@H](CC(N)=O)C(=O)N[C@H](C(N)=O)[C@@H](C)O` [Peptide 293] (H-H[Aib]HGSFTSDVSK[αMeF]LDSRAAK([AEEA-AEEA-γGlu-C18 diacid])DFVQWIANT-NH2), the concentration giving a half-maximal response (EC50) in experiment [1] stood at 0.0335 nM. In experiment [2], the EC50 amounted to 0.092 nM and the “% Relative Potency Ratio” value came to 0.7.

Regarding `CC[C@H](C)[C@H](NC(=O)[C@H](Cc1c[nH]c2ccccc12)NC(=O)[C@H](CCC(N)=O)NC(=O)[C@@H](NC(=O)[C@](C)(Cc1ccccc1)NC(=O)[C@H](CC(=O)O)NC(=O)[C@H](CCCCNC(=O)COCCOCCNC(=O)COCCOCCNC(=O)CC[C@H](NC(=O)CCCCCCCCCCCCCCCCC(=O)O)C(=O)O)NC(=O)[C@H](C)NC(=O)[C@H](C)NC(=O)[C@H](CCCNC(=N)N)NC(=O)[C@H](CO)NC(=O)[C@H](CC(=O)O)NC(=O)[C@H](CC(C)C)NC(=O)[C@H](Cc1ccc(O)cc1)NC(=O)[C@H](CCCCN)NC(=O)[C@H](CO)NC(=O)[C@@H](NC(=O)[C@H](CC(=O)O)NC(=O)[C@H](CO)NC(=O)[C@@H](NC(=O)[C@H](Cc1ccccc1)NC(=O)[C@H](CO)NC(=O)CNC(=O)[C@H](Cc1c[nH]cn1)NC(=O)C(C)(C)NC(=O)[C@@H](N)Cc1c[nH]cn1)[C@@H](C)O)C(C)C)C(C)C)C(=O)N[C@@H](C)C(=O)N[C@@H](CC(N)=O)C(=O)N[C@H](C(N)=O)[C@@H](C)O` [Peptide 294] (H-H[Aib]HGSFTSDVSKYLDSRAAK([AEEA-AEEA-γGlu-C18 diacid])D[αMeF]VQWIANT-NH2), the EC50 in experiment [1] is 0.102 nM. Also, in experiment [2], the EC50 worked out at 0.51 nM and the “% Relative Potency Ratio” value amounted to 0.4.

On to `CC[C@H](C)[C@H](NC(=O)C(C)(C)NC(=O)[C@H](CCC(N)=O)NC(=O)[C@@H](NC(=O)[C@](C)(Cc1ccccc1)NC(=O)[C@H](CC(=O)O)NC(=O)[C@H](CCCCNC(=O)COCCOCCNC(=O)COCCOCCNC(=O)CC[C@H](NC(=O)CC[C@H](NC(=O)CCCCCCCCCCCCCCCCCCC(=O)O)C(=O)O)C(=O)O)NC(=O)[C@H](C)NC(=O)[C@H](C)NC(=O)[C@H](CCCNC(=N)N)NC(=O)[C@H](CO)NC(=O)[C@H](CC(=O)O)NC(=O)[C@H](CC(C)C)NC(=O)C(C)(C)NC(=O)[C@H](CCCCN)NC(=O)[C@H](CO)NC(=O)[C@@H](NC(=O)[C@H](CC(=O)O)NC(=O)[C@H](CO)NC(=O)[C@@H](NC(=O)[C@](C)(Cc1ccccc1)NC(=O)[C@H](CO)NC(=O)CNC(=O)[C@H](Cc1c[nH]cn1)NC(=O)C(C)(C)NC(=O)[C@@H](N)Cc1c[nH]cn1)[C@@H](C)O)C(C)C)C(C)C)C(=O)N[C@@H](C)C(=O)N[C@@H](CC(N)=O)C(=O)N[C@H](C(N)=O)[C@@H](C)O` [Peptide 295] (H-H[Aib]HGS[αMeF]TSDVSK[Aib]LDSRAAK([AEEA-AEEA-γGlu-γGlu-C20 diacid])D[αMeF]VQ[Aib]IANT-NH2), for which the concentration giving a half-maximal response (EC50) in experiment [1] was found to be 17.1 nM. In experiment [2], the half-maximal effective concentration (EC50) came out at 0.312 nM and the “% Relative Potency Ratio” value is recorded as 108.2.

Regarding `CC[C@H](C)[C@H](NC(=O)C(C)(C)NC(=O)[C@H](CCC(N)=O)NC(=O)[C@@H](NC(=O)[C@](C)(Cc1ccccc1)NC(=O)[C@H](CC(=O)O)NC(=O)[C@H](CCCCNC(=O)COCCOCCNC(=O)COCCOCCNC(=O)CC[C@H](NC(=O)CCCCCCCCCCCCCCCCC(=O)O)C(=O)O)NC(=O)[C@H](C)NC(=O)[C@H](C)NC(=O)[C@H](CCCNC(=N)N)NC(=O)[C@H](CO)NC(=O)[C@H](CC(=O)O)NC(=O)[C@H](CC(C)C)NC(=O)C(C)(C)NC(=O)[C@H](CCCCN)NC(=O)[C@H](CO)NC(=O)[C@@H](NC(=O)[C@H](CC(=O)O)NC(=O)[C@H](CO)NC(=O)[C@@H](NC(=O)[C@](C)(Cc1ccccc1)NC(=O)[C@H](CO)NC(=O)CNC(=O)[C@H](Cc1c[nH]cn1)NC(=O)C(C)(C)NC(=O)[C@@H](N)Cc1c[nH]cn1)[C@@H](C)O)C(C)C)C(C)C)C(=O)N[C@@H](C)C(=O)N[C@@H](CC(N)=O)C(=O)N[C@H](C(N)=O)[C@@H](C)O` [Peptide 296] (H-H[Aib]HGS[αMeF]TSDVSK[Aib]LDSRAAK([AEEA-AEEA-γGlu-C18 diacid])D[αMeF]VQ[Aib]IANT-NH2), the EC50 in experiment [1] was determined as 3.25 nM; in experiment [2], 0.0641 nM. Also, the “% Relative Potency Ratio” value in experiment [2] came to 100.3.

For the origin of these results see patent publication US20250353891A1 (MEDIMMUNE LIMITED, priority 2022, published 2025).
